From publication PMC11472313, “Development of Fragment-Based Inhibitors of the Bacterial Deacetylase LpxC with Low Nanomolar Activity” (Journal of Medicinal Chemistry, 2024)

Experiments:
[1] = plasma protein binding, mouse; type: in vitro ADME; settings: for fraction unbound: plasma
Method: (§1) The microsomal metabolic stability assay as well as the plasma protein binding assay were conducted as described previously.[78]

MMP3 = biological target: T1, MMP3 (Homo sapiens, UniProt P08254); assay: MMP3 inhibition (SensoLyte 520 Generic MMP Activity Kit); type: biochemical; settings: read-out: MMP3 (% inhibition at 100 μM)
T1 construct: purchased AnaSpec (Fremont, CA, USA)
T1 sequence (P08254 100-477, species assumed): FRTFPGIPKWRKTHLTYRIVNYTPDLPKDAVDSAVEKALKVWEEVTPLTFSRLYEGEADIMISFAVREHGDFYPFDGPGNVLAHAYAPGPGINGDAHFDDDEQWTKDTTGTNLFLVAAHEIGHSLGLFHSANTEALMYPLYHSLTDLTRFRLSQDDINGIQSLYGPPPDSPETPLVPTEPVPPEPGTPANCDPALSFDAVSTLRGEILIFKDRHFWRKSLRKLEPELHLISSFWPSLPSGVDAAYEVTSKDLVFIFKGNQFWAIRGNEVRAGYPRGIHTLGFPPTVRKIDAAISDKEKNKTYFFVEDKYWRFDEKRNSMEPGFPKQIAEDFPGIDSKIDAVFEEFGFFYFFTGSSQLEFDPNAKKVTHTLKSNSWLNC
Method: (§2) Since LpxC and LasB are zinc-dependent enzymes, we investigated potential off-target activity of the three frontrunners on mammalian zinc-dependent enzymes. Our panel comprised three representative matrix-metalloproteases (MMP1–3) and tumor necrosis factor-α converting enzyme (TACE, also known as ADAM17) (Table 6).
(§3) Purification of LasB from P. aeruginosa PA14 supernatant and the subsequent performance of the FRET-based in vitro inhibition assay was performed as described previously.[66] The TACE (ADAM-17) inhibitor screening kit was purchased from Sigma-Aldrich (Saint Louis, MO). MMPs 1–3 along with the SensoLyte 520 Generic MMP Activity Kit Fluorimetric were purchased from AnaSpec (Fremont, CA, USA). The assays were performed according to the guidelines of the respective manufacturer. Fluorescence signals were measured using a CLARIOstar plate reader (BMG Labtech, Ortenberg, Germany).

[2] = plasma protein binding, human; type: in vitro ADME
Method: as §1

[3] = microsomal metabolic stability, mouse; type: in vitro ADME; settings: for microsomal CLint: mouse liver microsomes; for half-life: mouse, liver microsomes, read-out: microsomal metabolic stability t1/2
Method: Also, the plasma stability of the compounds in mouse plasma was generally low with half-lives between 22.9 min [(S)-13h] and 43.1 min [(S)-13j].
as §1
Samples were analyzed using an Agilent 1290 Infinity II HPLC system coupled to an AB Sciex QTrap 6500plus mass spectrometer. LC conditions were as follows: column: Agilent Zorbax Eclipse Plus C18, 50 × 2.1 mm, 1.8 μm; temperature: 30 °C; injection volume: 5 μL per sample; flow rate: 700 μL min^–1. Samples were run under acidic conditions. Solvents: (A) water + 0.1% formic acid; (B) 95% acetonitrile/5% H2O + 0.1% formic acid. Gradient elution: (A %): 0–0.1 min: 99%, 0.1–3.5 min: gradient from 99 to 50%, 3.5–3.8 min: gradient from 50 to 0%, 3.8–4.7 min: gradient from 0 to 99%. Mass transitions for controls and compounds are depicted in Table S3.

[4] = metabolic stability in mouse liver S9 fractions; type: in vitro ADME; settings: pooled liver S9 fraction, 1 μM compound, 1 mg/mL S9, phase I and II cofactors; for half-life at 1 μM: read-out: metabolic stability in mouse liver S9 fractions t1/2
Method: For the evaluation of combined phase I and phase II metabolic stability, the compound (1 μM) was incubated with 1 mg/mL pooled mouse liver S9 fraction (Xenotech, Kansas City, USA), 2 mM nicotinamide adenine dinucleotide phosphate hydrogen (NADPH), 1 mM UDPGA, 10 mM MgCl2, 5 mM glutathione (GSH), and 0.1 mM 3′-phosphoadenosine 5′-phosphosulfate (PAPS) at 37 °C for 120 min. The metabolic stability of testosterone, verapamil, and ketoconazole were determined in parallel to confirm the enzymatic activity of mouse S9 fractions. The incubation was stopped after defined time points by precipitation of aliquots of S9 enzymes with 2 volumes of cold acetonitrile containing internal standard (150 nM diphenhydramine). Samples were stored on ice until the end of the incubation and the precipitated protein was removed by centrifugation (15 min, 4 °C, 4000g). Concentration of the remaining test compound at the different time points was analyzed by HPLC–MS/MS (TSQ Quantum Access Max, Thermo Fisher, Dreieich, Germany) and used to determine half-life (t1/2).

[5] = MTT-based cytotoxicity assay; type: cell-based; settings: human, HepG2 cells
Text: An MTT-based assay was employed to evaluate the viability of HepG2 cells after challenge with selected inhibitors and performed as described previously.[77]

MMP1 = biological target: T2, MMP1 (Homo sapiens, UniProt P03956); assay: MMP1 inhibition (SensoLyte 520 Generic MMP Activity Kit); type: biochemical; settings: read-out: MMP1 (% inhibition at 100 μM)
T2 construct: purchased AnaSpec (Fremont, CA, USA)
T2 sequence (P03956 100-469): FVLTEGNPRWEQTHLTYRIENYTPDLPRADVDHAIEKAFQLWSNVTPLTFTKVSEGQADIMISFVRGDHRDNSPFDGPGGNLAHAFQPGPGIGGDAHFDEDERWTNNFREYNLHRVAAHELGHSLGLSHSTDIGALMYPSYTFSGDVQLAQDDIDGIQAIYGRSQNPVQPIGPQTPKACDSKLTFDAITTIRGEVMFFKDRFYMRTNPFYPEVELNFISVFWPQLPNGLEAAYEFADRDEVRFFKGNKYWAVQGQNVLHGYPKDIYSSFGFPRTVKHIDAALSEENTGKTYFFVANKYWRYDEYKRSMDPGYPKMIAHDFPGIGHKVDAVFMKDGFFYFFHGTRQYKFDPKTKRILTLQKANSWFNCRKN
Method: as §2, §3

MMP2 = biological target: T3, MMP2 (Homo sapiens, UniProt P08253); assay: MMP2 inhibition (SensoLyte 520 Generic MMP Activity Kit); type: biochemical; settings: for inhibition at 100 µM: read-out: MMP2 (% inhibition at 100 μM), 100 μM
T3 construct: purchased AnaSpec (Fremont, CA, USA)
T3 sequence (P08253 110-660): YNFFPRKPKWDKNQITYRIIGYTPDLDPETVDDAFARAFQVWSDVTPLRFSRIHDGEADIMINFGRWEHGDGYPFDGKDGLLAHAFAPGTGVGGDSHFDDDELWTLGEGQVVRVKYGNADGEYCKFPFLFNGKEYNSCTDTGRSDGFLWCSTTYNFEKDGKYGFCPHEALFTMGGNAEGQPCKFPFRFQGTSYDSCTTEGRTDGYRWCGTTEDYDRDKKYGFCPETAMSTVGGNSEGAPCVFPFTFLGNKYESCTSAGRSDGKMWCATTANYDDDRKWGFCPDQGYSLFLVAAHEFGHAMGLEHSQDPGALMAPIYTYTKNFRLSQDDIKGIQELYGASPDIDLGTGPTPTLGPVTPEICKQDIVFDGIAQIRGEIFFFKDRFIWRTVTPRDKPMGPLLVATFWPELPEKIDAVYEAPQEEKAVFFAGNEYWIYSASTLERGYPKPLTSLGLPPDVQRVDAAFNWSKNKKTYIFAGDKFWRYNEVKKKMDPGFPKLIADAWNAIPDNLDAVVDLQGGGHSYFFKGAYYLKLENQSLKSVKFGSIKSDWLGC
Method: as §2, §3

[6] = log D7.4, HPLC-based method; type: physicochemical; settings: pH 7.4, HPLC-based; read-out: logD7.4
Method: Log D7.4 was analyzed using an HPLC-based method. The UV retention time of reference compounds with known log D7.4 was determined and plotted toward their log D7.4. Linear regression was used to determine the log D7.4 of unknown compounds. Analysis was performed using a Vanquish Flex HPLC system with a variable wavelength detector (Thermo Fisher, Dreieich, Germany) with the following conditions: EC150/2 NUCLEODUR C18 Pyramid column, […] (Macherey Nagel, Düren, Germany); eluent A: 50 mM NH4OAc pH 7.4, eluent B: acetonitrile, and flow: 0.6 mL/min; gradient elution: (B %): 0–2.5 min: gradient from 0 to 100%, 2.5–3.0 min: 100%, 3.0–3.2 min: gradient from 100 to 0%, 3.2–5.0 min: 0%.

Row | Structure (SMILES) | fraction unbound [1] | inhibition at 100 µM (MMP3) | fraction unbound [2] | microsomal CLint [3] | half-life [3] | microsomal CLint at 1 μM [4] | half-life at 1 μM [4] | IC50 [5] | inhibition at 100 µM (MMP1) | inhibition at 100 µM (MMP2) | chromatographic logD [6] | MMP2 (% inhibition at 100 μM) (MMP2; 100 μM) | plasma protein binding mouse [1] | IC50 (MMP2) | selectivity factor for MMP2 (MMP2; MMP2 versus LpxC)
1 | O=C(NC[C@H](OCc1ccc(C#Cc2ccc(CN3CCOCC3)cc2)cc1)C(=O)NO)c1c[nH]c2ccccc12 [(S)-13h] | 0.0541 | < 10% | 0.0175 | < 23 µL/min/mg | > 60 min | ~45 µL/min/mg | 15.5 ± 1 min | 15.1 ± 1.7 µM | 15 ± 7% | 15 ± 3% | 3.63 |  |  |  | 
2 | O=C(NC[C@H](OCc1ccc(C#Cc2ccc(CN3CCOCC3)cc2)cc1)C(=O)NO)c1ccc2[nH]ccc2c1 [(S)-13j] | 0.0795 | 16 ± 1% | 0.0205 | < 23 µL/min/mg | > 60 min | 27.6 ± 2.7 µL/min/mg | 25.5 ± 2.7 min | 8.1 ± 1.4 µM | < 10% | ~50% | 3.33 | 47 ± 3% |  |  | 
3 | O=C(NC[C@H](OCc1ccc(C#Cc2ccc(CN3CCOCC3)cc2)cc1)C(=O)NO)c1cc[nH]n1 [(S)-13l] | > 0.2 | 19 ± 2% | 0.0224 | 26 µL/min/mg | ~53 min | 10.9 ± 0.9 µL/min/mg | > 60 min | 30.2 ± 1.9 µM | 11 ± 6% | 65 ± 4% | 2.43 |  | 79.42 ± 2.5% | 67 µM | 105
